pIC50: −log10 of the molar value. One block for each compound: values may come before it.
Legend:
HeLa cells = settings: read-out: cytotoxic IC50 in HeLa cells; cited from earlier work
KDM4B = biological target: T1, KDM4B (Homo sapiens, UniProt O94953); test: Formaldehyde dehydrogenase-coupled demethylase assay, KDM4B; type: biochemical; set-up: concentration or dose not given beside the values; settings: FDH-coupled assay
T1 construct: Human KDM4B 1-348 and KDM4A 1-347 were PCR amplified; His6 (N); made in house; host or cells: Escherichia coli BL21 (DE3)
T1 sequence (O94953 1-348): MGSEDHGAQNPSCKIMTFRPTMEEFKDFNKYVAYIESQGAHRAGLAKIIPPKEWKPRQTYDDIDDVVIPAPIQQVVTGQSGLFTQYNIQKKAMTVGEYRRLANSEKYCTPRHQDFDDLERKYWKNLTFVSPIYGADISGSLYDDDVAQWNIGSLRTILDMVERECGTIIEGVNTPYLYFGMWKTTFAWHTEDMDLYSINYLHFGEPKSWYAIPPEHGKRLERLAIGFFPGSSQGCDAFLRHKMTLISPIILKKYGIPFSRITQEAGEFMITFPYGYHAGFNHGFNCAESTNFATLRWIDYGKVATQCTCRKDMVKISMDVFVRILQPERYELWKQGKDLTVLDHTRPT

[1] = biological target: T2, FDH (formaldehyde dehydrogenase) (Pseudomonas putida, UniProt P46154); test: FDH residual activity (control for the coupling enzyme); type: biochemical; set-up: concentration or dose not given beside the values
T2 construct: purchased Sigma
T2 sequence (P46154 1-399): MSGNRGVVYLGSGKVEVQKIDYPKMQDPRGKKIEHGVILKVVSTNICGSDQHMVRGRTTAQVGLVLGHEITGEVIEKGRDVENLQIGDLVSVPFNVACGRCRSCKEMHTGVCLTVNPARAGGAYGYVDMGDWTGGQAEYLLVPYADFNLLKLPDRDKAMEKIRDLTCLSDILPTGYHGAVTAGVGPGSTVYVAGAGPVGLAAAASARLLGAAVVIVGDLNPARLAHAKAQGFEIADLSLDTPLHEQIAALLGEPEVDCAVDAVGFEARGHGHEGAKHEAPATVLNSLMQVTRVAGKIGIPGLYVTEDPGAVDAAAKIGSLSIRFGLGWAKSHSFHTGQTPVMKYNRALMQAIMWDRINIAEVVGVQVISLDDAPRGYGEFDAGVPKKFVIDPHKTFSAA

KDM4A = biological target: T3, KDM4A (Homo sapiens, UniProt O75164); test: Formaldehyde dehydrogenase-coupled demethylase assay, KDM4A; type: biochemical; set-up: Demethylase Residual Activity (%): concentration or dose not given beside the values; settings: for Demethylase Residual Activity (%): FDH-coupled assay
T3 construct: Human KDM4B 1-348 and KDM4A 1-347 were PCR amplified; His6 (N); made in house; host or cells: Escherichia coli BL21 (DE3)
T3 sequence (O75164 1-347): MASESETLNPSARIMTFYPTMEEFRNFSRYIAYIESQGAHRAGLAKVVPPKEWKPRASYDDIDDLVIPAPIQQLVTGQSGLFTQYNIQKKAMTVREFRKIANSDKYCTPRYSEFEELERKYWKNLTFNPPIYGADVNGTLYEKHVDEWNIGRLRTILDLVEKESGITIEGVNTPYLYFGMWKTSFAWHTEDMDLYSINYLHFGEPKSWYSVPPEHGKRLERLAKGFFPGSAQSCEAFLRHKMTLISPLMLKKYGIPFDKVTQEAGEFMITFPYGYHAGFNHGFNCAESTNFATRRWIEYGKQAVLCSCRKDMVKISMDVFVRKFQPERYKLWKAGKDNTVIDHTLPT

KDM4A/KDM4B [2] = test: KDM4A/KDM4B inhibitory assay, results stated in words; type: biochemical, human
Experimental: Formaldehyde dehydrogenase-coupled demethylase assay was used to determine the demethylase activity and select the potent inhibitors. All inhibitors were dissolved in dimethyl sulfoxide (DMSO) at various concentrations, and added to the mixture that the final DMSO concentration is 5%. The reagents for demethylase reactions were dissolved in HEPES buffer (50 mM, pH 7.5), with the exception of Fe(II) solutions, which were made using (NH4)2Fe(SO4)2 dissolved in 20 mM HCl to make 400 mM stock solution. All the reagents were stored at −30° C. FDH, NAD+, H-TKQTARK(Me3)[…]-OH (TR-15, H33-17K9me3, Kelowna), DMSO, and KDM4B were added first to 96-well black immune plate (SPL Life Science) and incubated together on ice for 15 min. Then the plate was put into FLUOStar OPTIMA ELISA reader (BMG LABTECH) with 37° C., and the reaction was started by adding ascorbic acid (ascorbate), Fe(II), and α-ketoglutarate (AKG) to final concentration of 50 mM HEPES, pH 7.5, 2 μM of KDM4B, 5% DMSO, 0.01 U FDH (Sigma), 1 mM NAD+, 1 mM 2-OG, 2 mM ascorbate, and 50 μM Fe(II), various concentration of H3K9me3 peptide, and the final volume was 50 μl. Each reaction was incubated at 37° C. for 30 min and the production of NADH would be detected by using the fluorescence Ex 360/Em 470. […]

in vitro = type: cell-based; settings: human
Experimental: (§1) LNCaP cells are infected with lentivirus with control shRNA (control) and shKDM4A or shKDM4B as indicated (left panel). The qRT-PCR analysis is performed to evaluate the expression of KDM4s (right panel). […] LNCaP cells are treated with 1,5-bis[(E)-2-(3,4-dichlorophenyl) ethenyl]-2,4-dinitrobenzene for three days, and the viability is measured by viable cell count. SD is derived from biological triplicates. The level of H3K9me3 of 1,5-bis[(E)-2-(3,4-dichlorophenyl)ethenyl]-2,4-dinitrobenzene-treated cells (24 hr) is detected and quantified by AlphaView SA (Cell Biosciences Inc.). The level of H3K9me3 is shown by bar graph.
Primary PrEC cells were purchased from Clonetics (Walkersville, Md.) and cultured in serum-free prostate epithelial cell growth medium following the vendor's directions. Cell lines RWPE1, LNCaP (LNCaP-FGC), CWR22Rv1 (22Rv1), VCaP, DU145, PC3 (all purchased from ATCC), and PNT2 (Sigma Aldrich, MO), were cultured under condition as recommended. CWR-R1 cell (40) and LNCaP derived C4-2, C4-2B cells were cultured in RPMI1640 medium containing 10% FBS.

LNCaP cells [3] = test: Microarray gene expression analysis of treated LNCaP cells; type: cell-based, human; settings: 3 days
Experimental: LNCaP cells treated with mock and the 1,5-bis[(E)-2-(3,4-dichlorophenyl) ethenyl]-2,4-dinitrobenzene inhibitor for 3 days were harvested and the total RNA was extracted using Trizol reagent (Life Technologies, NY). Microarray analysis was performed by the University of California Davis Cancer Center Gene Expression Resource, using Affymetrix Human Genome U133A (HG-U133A) GeneChip arrays (Affymetrix, CA), which permit expression analysis of the entire Genbank RefSeq database. Array scanning and generation of raw signal data files were done with GeneChip Operating Software (Affymetrix). Subsequent data analysis was done by GeneSpring (Agilent Technologies, CA) and DAVID Bioinformatic Resources 6.7 (NIH).

H3K9me3 in LNCaP cells = test: Cellular level of H3K9me3 in LNCaP cells, immunoblotting; type: cell-based, human
Experimental: as §1
(§2) Total cell lysates were obtained by lysing the cell with buffer (50 mM Tris-HCl pH7.5, 150 mM NaCl, 0.5% Triton X-100, 10% glycerol, 1 mM EDTA, protease inhibitors) for 15 min on ice, followed by 10 min of sonication cycle (30 sec on, 30 sec off) on ice. The level of total histone H3 and trimethylated histone H3 Lys9 was analyzed by western blotting using anti-histone H3 and anti-H3K9me3 antibodies (Abcam, MA). Cells treated with mock and the inhibitor were harvested and fixed by 70% ethanol for >4 hours at −20° C., followed by propidium iodide (Sigma Aldrich) staining. The DNA content was analyzed by Becton Dickinson FACScan flow cytometry, and the sub-G1 population was quantified by WinMDI 2.9.

LNCaP cells [4] = test: Flow cytometric analysis of DNA content (sub-G1, apoptosis) in LNCaP cells; type: cell-based, human; settings: 50 μM, 3 days; mock 11.9%
Experimental: as §1, §2

KDM4A/KDM4B [5] = settings: calf thymus histones as substrate

SMILES: O=C(O)c1ccc(O)c2ncccc12 [5-carboxy-8HQ]
pIC50 (HeLa cells): 4.06

SMILES: CCCCCC/C(C)=N/Nc1ccc([N+](=O)[O-])cc1[N+](=O)[O-] [NSC1018]
Demethylase Residual Activity (%) (KDM4B): 62%
FDH Residual Activity (%) [1]: >80%
Demethylase Residual Activity (%) (KDM4A): 85%

SMILES: C/C(=N/Nc1ccc([N+](=O)[O-])cc1[N+](=O)[O-])c1ccccc1 [NSC6129]
Demethylase Residual Activity (%) (KDM4B): 52%
FDH Residual Activity (%) [1]: >80%
Demethylase Residual Activity (%) (KDM4A): 100%

SMILES: O=C1C=Cc2ccccc2/C1=N/Nc1ccc([N+](=O)[O-])cc1[N+](=O)[O-] [NSC15975]
Demethylase Residual Activity (%) (KDM4B): 90%
FDH Residual Activity (%) [1]: >80%
Demethylase Residual Activity (%) (KDM4A): 73%

SMILES: O=C(O)c1ccc(C(=O)c2ccccc2C(=O)O)cc1C(=O)O [NSC28620]
inhibitory effect on KDM4A/KDM4B (in words) (KDM4A/KDM4B [2]): completely lost the inhibitory effects
FDH Residual Activity (%) [1]: >80%

SMILES: COC1CC(OC(=O)c2ccc([N+](=O)[O-])cc2)C(OC(=O)c2ccc([N+](=O)[O-])cc2)C(C)O1 (stereo not shown) [NSC107408]
inhibitory effect on KDM4A/KDM4B (in words) (KDM4A/KDM4B [2]): no inhibition
Demethylase Residual Activity (%) (KDM4B): 64%
FDH Residual Activity (%) [1]: >80%
Demethylase Residual Activity (%) (KDM4A): 99%

SMILES: O=C1C=CC=C/C1=C\Nc1cc(C(=O)O)cc(C(=O)O)c1 [NSC124029]
Demethylase Residual Activity (%) (KDM4B): 62%
FDH Residual Activity (%) [1]: 97%
Demethylase Residual Activity (%) (KDM4A): 93%

SMILES: O=[N+]([O-])c1cc([N+](=O)[O-])c(/C=C/c2ccc(Cl)c(Cl)c2)cc1/C=C/c1ccc(Cl)c(Cl)c1 [NSC636819]
IC50 at 3 days (in vitro): 21.2 µM
expression of oncogenes IGF1R, FGFR3, CCNE2, AURKA and AURKB (LNCaP cells [3]): down-regulation
expression of tumour suppressors RB1, CDH1 (LNCaP cells [3]): up-regulation
portion of the altered genes found to be androgen responsive genes (LNCaP cells [3]; ≥two-fold alterations, 178/656): 27%
demethylating activity toward H3K9me3 in cells (H3K9me3 in LNCaP cells; 5 μM): essentially completely blocked
cellular level of H3K9me3 (H3K9me3 in LNCaP cells; 24 hr, dose-dependent): notable increase
FDH Residual Activity (%) [1]: >80%
inhibitory mode (KDM4A; against H33-17K9me3): competitive
apoptotic LNCaP cells (LNCaP cells [4]): 39.5%

SMILES: COC(=O)C(C(=O)C(=O)Nc1ccc([N+](=O)[O-])cc1[N+](=O)[O-])c1nc2ccc(Cl)cc2[nH]c1=O (stereo not shown) [NSC640999]
Demethylase Residual Activity (%) (KDM4B): 49%
FDH Residual Activity (%) [1]: >80%
Demethylase Residual Activity (%) (KDM4A): 77%

SMILES: C/C(CC(O)(C(F)(F)F)C(F)(F)F)=N/Nc1ccc([N+](=O)[O-])cc1[N+](=O)[O-] [NSC659196]
Demethylase Residual Activity (%) (KDM4B): 56%
FDH Residual Activity (%) [1]: >80%
Demethylase Residual Activity (%) (KDM4A): 92%

Demethylase Residual Activity (%) (KDM4B): 24%
Demethylase Residual Activity (%) (KDM4A): 21%
SMILES: O=C(O)c1ccnc(C(=O)O)c1 [PD2, pyridine 2,4-dicarboxylic acids, reference compound]
demethylation activity on histones (H3K9me3, H3K36me3 western blot) (KDM4A/KDM4B [5]): blocked the demethylation activity

Reference: US11279966B2, “Method for identifying compound for inhibiting an activity of a histone lysine demethylase” (NATIONAL TSING HUA UNIVERSITY, priority 2014, dated 2022)
